{"source": "ChEMBL document CHEMBL1128614", "about": "“Proctolin and related N-methylated pentapeptides selectively contract locust foregut but not rat ileum” (1995)", "type_in_all_cases": "functional", "key": {"Schistocerca gregaria [1]": {"test_system": "Schistocerca gregaria", "test": "Tested for tissue (foreguts isolated from Schistocerca gregaria) contraction response at 2 uM"}, "Schistocerca gregaria [2]": {"test_system": "Schistocerca gregaria", "test": "Tested for tissue (foreguts isolated from Schistocerca gregaria) contraction response; No activity"}, "Schistocerca gregaria [3]": {"test_system": "Schistocerca gregaria", "test": "Tested for tissue (foreguts isolated from Schistocerca gregaria) contraction response at 80 uM"}, "Schistocerca gregaria [4]": {"test_system": "Schistocerca gregaria", "test": "Tested for contraction Schistocerca gregaria gut at concentrations ranging from 10 nM to 5 uM and maximum response concentration reported"}}, "note": "Square brackets hold non-standard residues; d marks the D form. Peptide text beside a SMILES is read from it. NMeT = CN[C@H](C(=O)O)[C@@H](C)O; NMeL = CN[C@@H](CC(C)C)C(=O)O"}
{"smiles": "CC(C)C[C@H](NC(=O)[C@H](Cc1ccc(O)cc1)NC(=O)[C@@H](N)CCCN=C(N)N)C(=O)N1CCC[C@H]1C(=O)N(C)[C@H](C(=O)O)[C@@H](C)O", "note": "(H-RYLP[NMeT]-OH)", "values": [{"measurement": "Max contraction", "setting": "Schistocerca gregaria [1]", "value": 78, "unit": "%"}]}
{"smiles": "CC(C)C[C@@H](NC(=O)[C@@H](Cc1ccc(O)cc1)N(C)C(=O)[C@@H](N)CCCN=C(N)N)C(=O)N1CCC[C@@H]1C(=O)N[C@H](C(=O)O)[C@H](C)O", "values": [{"measurement": "Activity", "setting": "Schistocerca gregaria [2]", "value": "No activity"}]}
{"smiles": "CC(C)C[C@@H](C(=O)N1CCC[C@H]1C(=O)N[C@H](C(=O)O)[C@@H](C)O)N(C)C(=O)[C@H](Cc1ccc(O)cc1)NC(=O)[C@@H](N)CCCN=C(N)N", "note": "(H-RY[NMeL]PT-OH)", "values": [{"measurement": "Max contraction", "setting": "Schistocerca gregaria [3]", "value": 52, "unit": "%"}]}
{"smiles": "CC(C)C[C@@H](NC(=O)[C@@H](Cc1ccc(O)cc1)NC(=O)[C@@H](N)CCCN=C(N)N)C(=O)N1CCC[C@@H]1C(=O)N[C@H](C(=O)O)[C@H](C)O", "values": [{"measurement": "Concentration", "setting": "Schistocerca gregaria [4]", "value": 1, "unit": "µM"}]}
